Data reported in patent US20160244390A1, “Etherified Tri-Butylphenol Alkoxylates, Process For Their Preparation And Their Use In Crop Protection Agents” (CLARIANT INTERNATIONAL LTD, priority 2013, published 2016).

Tests used:
[1] = Dynamic surface tension by the bubble pressure method (wetting agent effect); assay type: physicochemical; conditions: for Dynamic surface tension: 22° C.
Procedure: The dynamic surface tension was determined by the bubble pressure method (BP2100 tensiometer, Krúss) on a timescale relevant for spray application. The dynamic surface tension was measured for solutions of TBPEM-6 and TBPEM-8 in mains water at room temperature (22° C.) and at the typical spray mixture concentrations of 0.3, 1, and 3 g/l.

apple cuticles = test: Percentage penetration of benzyladenine through apple cuticles with and without TBPEM-6; assay type: in vitro ADME; conditions: 0.2 g/l benzyladenine in acetone/mains water, no additive
Procedure: The method described in the literature (Baur et al., 1997, Pesticide Science 51, 131-152) can be used for determining these properties.
The penetration of the growth promoter benzyladenine (benzylamonopurin) through leaf cuticles was measured at an active ingredient concentration of 0.2 g/l benzyladenine in acetone/mains water, with and without TBPEM-6, at different practically relevant concentrations, 5 hours and 24 hours after application.

| Dynamic surface tension ([1]; 0.3 g/L in mains water, 20 ms) [mN/m] | Dynamic surface tension ([1]; 0.3 g/L in mains water, 100 ms) [mN/m] | Dynamic surface tension ([1]; 0.3 g/L in mains water, 200 ms) [mN/m] | Dynamic surface tension ([1]; 1 g/L in mains water, 20 ms) [mN/m] | Dynamic surface tension ([1]; 1 g/L in mains water, 100 ms) [mN/m] | Dynamic surface tension ([1]; 1 g/L in mains water, 200 ms) [mN/m] | Dynamic surface tension ([1]; 3 g/L in mains water, 20 ms) [mN/m] | Dynamic surface tension ([1]; 3 g/L in mains water, 100 ms) [mN/m] | Dynamic surface tension ([1]; 3 g/L in mains water, 200 ms) [mN/m] | Molecule | Suitability as wetting agent from dynamic surface tension ([1]; spray application timescale) | Percentage penetration of benzyladenine (apple cuticles; 5 h) [%] | Percentage penetration of benzyladenine (apple cuticles; 24 h) [%] |
| --- | --- | --- | --- | --- | --- | --- | --- | --- | --- | --- | --- | --- |
| 70.3 | 65.0 | 62.8 | 62.9 | 54.1 | 52.5 | 55.5 | 42.9 | 41.8 | 2,4,6-tributylphenoxy-ethoxy(6) methyl ether [TBPEM-6] | excellent suitability as a rapid wetting agent | – | – |
| – | – | – | – | – | – | – | – | – | c1ccc(CNc2ncnc3nc[nH]c23)cc1 [Benzyladenine, benzyladenine] | – | 2.0 | 3.7 |
| 69.9 | 64.6 | 61.4 | 67.3 | 58.6 | 53.2 | 63.4 | 51.8 | 46 | tributylphenol ethoxylate(6) [Sapogenat T 060] | – | – | – |
